Assay results taken from patent US9376420B2 (YUHAN CORPORATION, priority 2012, dated 2016).

Biological target: T1, human LXRβ (Homo sapiens, UniProt P55055)
T1 construct: expressed in transfected cells; host or cells: HEK293 cells (ATCC CRL-1573), transient transfection with pFA-hLXRβ/GAL4 and pUAS
T1 sequence (P55055 222-460 limits assumed): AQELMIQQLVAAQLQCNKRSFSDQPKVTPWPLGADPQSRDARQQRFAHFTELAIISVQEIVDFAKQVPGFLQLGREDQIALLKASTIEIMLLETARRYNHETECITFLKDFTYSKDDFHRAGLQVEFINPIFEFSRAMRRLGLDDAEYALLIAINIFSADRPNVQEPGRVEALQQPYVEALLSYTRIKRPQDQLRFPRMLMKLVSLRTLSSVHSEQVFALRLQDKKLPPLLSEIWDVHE
Experiment: Assay for Transcriptional Activity of LXRβ (GAL4-hLXRβ LBD luciferase reporter, transient transfection)
Type: cell-based
Details: HEK293 cells transfected with pFA-hLXRβ/GAL4 and pUAS, 24 hours; for Emax: fold value in comparison with the control (DMSO-treated group); for EC50: increase of transcriptional activity of LXRβ, average of three independent tests
Summary of the method: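 EC50 values, averaged over three independent runs, come from a four-parameter fit of 9-point half-log curves spanning 0.01–50 μM. Luciferase output was read in lysed HEK293 cells 24 h after dosing at 37 °C, following transient transfection with a GAL4-human LXRβ LBD fusion plus GAL4-responsive reporter.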

Row | Emax [fold] | EC50 [nM] | SMILES
1 | 44 | 772 | CSc1ccc(-c2ccc(C3CC(C(O)(C(F)(F)F)C(F)(F)F)=NN3c3ccc(F)cc3F)cc2)cn1 (centres unmarked) [Example 382, 1-(2,4-difluoro-phenyl)-5-[4-(6-methanesulfanyl-pyridin-3-yl)-phenyl]-3-[di-(trifluoromethyl)-hydroxy-methyl]-4,5-dihydro-1H-pyrazole]
2 | 53 | 635 | CCCS(=O)(=O)N1CC=C(c2ccc(C3CC(C(O)(C(F)(F)F)C(F)(F)F)=NN3c3ccccc3Cl)cc2)CC1 (centres unmarked) [Example 300, 1-(2-chloro-phenyl)-5-{4-[1-(propane-1-sulfonyl)-1,2,3,6-tetrahydropyridin-4-yl]-phenyl}-3-[di-(trifluoromethyl)-hydroxy-methyl]-4,5-dihydro-1H-pyrazole]
3 | 46 | 94 | Cc1cc(F)ncc1-c1ccc(C2CC(C(O)(C(F)(F)F)C(F)(F)F)=NN2c2ccc(F)cc2F)cc1 (centres unmarked) [Example 384, 1-(2,4-difluoro-phenyl)-5-[4-(6-fluoro-4-methyl-pyridin-3-yl)-phenyl]-3-[di-(trifluoromethyl)-hydroxy-methyl]-4,5-dihydro-1H-pyrazole]
4 | 38 | 379 | CS(=O)(=O)N1CC=C(c2ccc(C3CC(C(O)(C(F)(F)F)C(F)(F)F)=NN3c3ccc(F)cc3F)cc2)CC1 (centres unmarked) [Example 400, 1-(2,4-difluoro-phenyl)-5-[4-(1-methanesulfonyl-1,2,3,6-tetrahydropyridin-4-yl)-phenyl]-3-[di-(trifluoromethyl)-hydroxy-methyl]-4,5-dihydro-1H-pyrazole]
5 | 73 | 479 | CC(C)S(=O)(=O)N1CC=C(c2ccc(C3CC(C(O)(C(F)(F)F)C(F)(F)F)=NN3c3ccccc3Cl)cc2)CC1 (centres unmarked) [Example 301, 1-(2-chloro-phenyl)-5-{4-[1-(propane-2-sulfonyl)-1,2,3,6-tetrahydropyridin-4-yl]-phenyl}-3-[di-(trifluoromethyl)-hydroxy-methyl]-4,5-dihydro-1H-pyrazole]
6 | 50 | 83 | Cc1cc(-n2cnnn2)ncc1-c1ccc(C2CC(C(O)(C(F)(F)F)C(F)(F)F)=NN2c2ccc(F)cc2F)cc1 (centres unmarked) [Example 394, 1-(2,4-difluoro-phenyl)-5-{4-[4-methyl-6-(tetrazol-1-yl)-pyridin-3-yl]-phenyl}-3-[di-(trifluoromethyl)-hydroxy-methyl]-4,5-dihydro-1H-pyrazole]
7 | 48 | 1300 | CN(C)C(=O)N1CC=C(c2cccc(C3CC(C(F)(F)C(F)(F)F)=NN3c3ccc(F)cc3F)c2)CC1 (centres unmarked) [Example 64, 1-(2,4-difluoro-phenyl)-5-[3-(1-dimethylcarbamoyl-1,2,3,6-tetrahydropyridin-4-yl)-phenyl]-3-pentafluoroethyl-4,5-dihydro-1H-pyrazole]
8 | 35 | 745 | COc1ncc(-c2ccc(C3CC(C(O)(C(F)(F)F)C(F)(F)F)=NN3c3ccc(F)cc3F)cc2)cc1C=O (centres unmarked) [Example 379, 1-(2,4-difluoro-phenyl)-5-[4-(5-formyl-6-methoxy-pyridin-3-yl)-phenyl)-3-[di-(trifluoromethyl)-hydroxy-methyl]-4,5-dihydro-1H-pyrazole]
9 | 107 | 885 | CS(=O)(=O)N1CCN(c2ccc(F)c(C3CC(C(F)(F)C(F)(F)F)=NN3c3ccc(F)cc3F)c2)CC1 (centres unmarked) [Example 145, 1-(2,4-difluoro)-5-[2-fluoro-5-(4-methanesulfonyl-piperazin-1-yl)-phenyl]-3-pentafluoroethyl-4,5-dihydro-1H-pyrazole]

The next lines start with the compound.

Row | SMILES | Emax [fold] | EC50 [nM]
10 | OC(C1=NN(c2ccccc2Cl)C(c2ccc(-c3ccc(C(F)(F)F)cc3)cc2)C1)(C(F)(F)F)C(F)(F)F (centres unmarked) [Example 247, 1-(2-chloro-phenyl)-5-[4′-(trifluoromethyl)-biphenyl-4-yl]-3-[di-(trifluoromethyl)-hydroxy-methyl]-4,5-dihydro-1H-pyrazole] | 33 | 2030
11 | CC(=O)c1ccc(-c2ccc(C3CC(C(O)(C(F)(F)F)C(F)(F)F)=NN3c3ccccc3Cl)c(F)c2)cc1 (centres unmarked) [Example 341, 1-(2-chloro-phenyl)-5-(4′-acetyl-3-fluoro-biphenyl-4-yl)-3-[di-(trifluoromethyl)-hydroxy-methyl]-4,5-dihydro-1H-pyrazole] | 112 | 353
12 | COc1ccc(-c2cc(C3CC(C(F)(F)C(F)(F)F)=NN3c3ccc(F)cc3F)ccc2F)cn1 (centres unmarked) [Example 131, 1-(2,4-difluoro-phenyl)-5-[4-fluoro-3-(6-methoxy-pyridin-3-yl)-phenyl]-3-pentafluoroethyl-4,5-dihydro-1H-pyrazole] | 45 | 12800
13 | CS(=O)(=O)c1cccc(-c2ccnc(C3CC(C(F)(F)C(F)(F)F)=NN3c3ccc(F)cc3F)c2)c1 (centres unmarked) [Example 177, 1-(2,4-difluoro-phenyl)-5-[4-(3-methanesulfonyl-phenyl)-pyridin-2-yl]-3-pentafluoroethyl-4,5-dihydro-1H-pyrazole] | 57 | 26
14 | CS(=O)(=O)c1cccc(-c2ccc(C3CC(C(F)(F)C(F)(F)F)=NN3c3ccccc3Cl)cc2)c1 (centres unmarked) [Example 5, 1-(2-chloro-phenyl)-5-[3′-(methylsulfonyl)-biphenyl-4-yl]-3-pentafluoroethyl-4,5-dihydro-1H-pyrazole] | 48 | 330
15 | OC(C1=NN(c2ccccc2Cl)C(c2ccc(-c3cccnc3)cc2)C1)(C(F)(F)F)C(F)(F)F (centres unmarked) [Example 277, 1-(2-chloro-phenyl)-5-[4-(pyridin-3-yl)-phenyl]-3-[di-(trifluoromethyl)-hydroxy-methyl]-4,5-dihydro-1H-pyrazole] | 65 | 364
16 | CN(C)S(=O)(=O)c1cccc(-c2ccc(C3CC(C(O)(C(F)(F)F)C(F)(F)F)=NN3c3ccccc3Cl)cc2)c1 (centres unmarked) [Example 284, 1-(2-chloro-phenyl)-5-(3′-dimethylsulfamoyl-biphenyl-4-yl)-3-[di-(trifluoromethyl)-hydroxy-methyl]-4,5-dihydro-1H-pyrazole] | 56 | 635
17 | COc1ncc(-c2ccc(C3CC(C(O)(C(F)(F)F)C(F)(F)F)=NN3c3ccccc3Cl)cc2)cn1 (centres unmarked) [Example 279, 1-(2-chloro-phenyl)-5-[4-(2-methoxy-pyrimidin-5-yl)-phenyl]-3-[di-(trifluoromethyl)-hydroxy-methyl]-4,5-dihydro-1H-pyrazole] | 67 | 931
18 | CS(=O)(=O)c1ccc(-c2cccc(C3CC(C(F)(F)C(F)(F)F)=NN3c3ccc(F)cc3F)c2)nc1 (centres unmarked) [Example 81, 1-(2,4-difluoro-phenyl)-5-[3-(5-methanesulfonyl-pyridin-2-yl)-phenyl]-3-pentafluoroethyl-4,5-dihydro-1H-pyrazole] | 78 | 1400
19 | COc1ccc(-c2ccc(C3CC(C(O)(C(F)(F)F)C(F)(F)F)=NN3c3ccccc3Cl)cc2)cc1 (centres unmarked) [Example 242, 1-(2-chloro-phenyl)-5-(4′-methoxy-biphenyl-4-yl)-3-[di-(trifluoromethyl)-hydroxy-methyl]-4,5-dihydro-1H-pyrazole] | 89 | 14100
20 | OC(C1=NN(c2ccccc2Cl)C(c2ccc(-c3cncnc3)cc2)C1)(C(F)(F)F)C(F)(F)F (centres unmarked) [Example 258, 1-(2-chloro-phenyl)-5-(4-pyrimidin-5-yl-phenyl)-3-[di-(trifluoromethyl)-hydroxy-methyl]-4,5-dihydro-1H-pyrazole] | 62 | 302
21 | CCS(=O)(=O)N1CCCN(c2ccc(C3CC(C(O)(C(F)(F)F)C(F)(F)F)=NN3c3ccccc3Cl)cc2)CC1 (centres unmarked) [Example 323, 1-(2-chloro-phenyl)-5-[4-(4-ethanesulfonyl-homopiperazin-1-yl)-phenyl]-3-[di-(trifluoromethyl)-hydroxy-methyl]-4,5-dihydro-1H-pyrazole] | 54 | 344
22 | CC(C)(C)OC(=O)N1CC=C(c2ccc(C3CC(C(O)(C(F)(F)F)C(F)(F)F)=NN3c3ccccc3Cl)c(F)c2)CC1 (centres unmarked) [Example 342, 1-(2-chloro-phenyl)-5-[2-fluoro-4-(1-BOC-1,2,3,6-tetrahydropyridin-4-yl)-phenyl]-3-[di-(trifluoromethyl)-hydroxy-methyl]-4,5-dihydro-1H-pyrazole] | 21 | 4070
23 | CN(C)c1ccc(-c2ccc(C3CC(C(O)(C(F)(F)F)C(F)(F)F)=NN3c3ccccc3Cl)cc2)cc1 (centres unmarked) [Example 254, 1-(2-chloro-phenyl)-5-(4′-dimethylamino-biphenyl-4-yl)-3-[di-(trifluoromethyl)-hydroxy-methyl]-4,5-dihydro-1H-pyrazole] | 50 | 7060
24 | Cl.OC(C1=NN(c2ccccc2Cl)C(c2ccc(C3=CCNCC3)s2)C1)(C(F)(F)F)C(F)(F)F (centres unmarked) [Example 417, 1-(2-chloro-phenyl)-5-[5-(1,2,3,6-tetrahydropyridin-4-yl)-thiophen-2-yl]-3-[di-(trifluoromethyl)-hydroxy-methyl]-4,5-dihydro-1H-pyrazole hydrochloride] | 58 | 1030
25 | Cc1ccncc1-c1ccc(C2CC(C(O)(C(F)(F)F)C(F)(F)F)=NN2c2ccccc2Cl)cc1 (centres unmarked) [Example 271, 1-(2-chloro-phenyl)-5-[4-(4-methyl-pyridin-3-yl)-phenyl]-3-[di-(trifluoromethyl)-hydroxy-methyl]-4,5-dihydro-1H-pyrazole] | 45 | 547
